Assay results as given in paper PMC10520499, “Next step in the development of mesoprogestins: the preclinical profile of EC313” (Frontiers in Endocrinology, 2023).

Tests used:
human Erα = target: T1, human Erα (Homo sapiens, UniProt P03372); experiment: ERα transactivation (CHO, ERE-LUC); type: cell-based
T1 construct: host or cells: CHO, transient co-transfection
Method: The CHO cell line was selected to express estrogen α and β protein and the gene expression under the tested compounds stimulation was analyzed. The co-transfection with vector encoding the human full-length steroid receptors hERα and hERβ and reporter vector ERE/LUC was performed. Transient and stable transfectants with protein overexpression were induced by tested compounds (17β-estradiol or EC313) or the mixture: estradiol and appropriate range of concentration of EC313. Agonist and antagonist properties of EC313 toward tested receptor ERα and ERβ were analyzed using luminescence detection.
Plasmid included vectors coding sequences for the receptor as well as the reporter gene. […]
The ability of EC313 to agonize and/or antagonize ER receptor expression was analyzed in the following test system: co-transfected CHO cells were stimulated with estradiol (0.009 nM - 1200 nM) and EC313 (0.009 nM - 1200 nM) for detection agonistic activity. The antagonistic activity was assessed during the competitive interaction between EC313 (0.009 nM - 1200nM) and an appropriate concentration of estradiol (see Table 3 ). […] After incubating the cells for 24h with the tested compounds, the luminescent signal generated by the luciferase activity was detected.

[1] = tested on: progesterone receptor (PRA, PRB) in T47D cells; experiment: PR nuclear translocation in T47D cells (Western blot); type: cell-based, human; conditions: 100 nM, compared to Promegestone, Mifepristone or Asoprisnil
Method: Subsequently, progesterone receptors present in nuclear as well as cytosolic fractions were stained using Western blotting.
[…] (constitutively expressing the progesterone receptor) were treated with 100 nM of EC313 or reference compounds to activate PR. After 6h and after 24h cells were lysed, the nuclear and cytosolic fractions were separated and Western blots of these fractions were prepared.
Blots were stained for PRA and PRB as well as the housekeeping proteins GAPDH (as a marker for the cytosolic fraction) and histone H3 (as a marker for the nuclear fraction). Nuclear and cytoplasmic proteins from […] were extracted after cell stimulation with PR ligands and the nuclear and cytoplasmic fractions were analyzed for PRB and PRA content using Western blotting.

T47D cells = experiment: Proliferation / arrest in Go/G1 in T47D cells; type: cell-based, human; set-up: key to Arrest in Go/G1: ↓/↑ - decreased/increased action of tested compounds.; ↓/↑ - decreased/increased action of tested compounds
[2] = tested on: estrogen-primed endometrium of immature rabbits; experiment: McPhail assay, estrogen-primed rabbit endometrium; type: in vivo; conditions: 10 and 30 mg/animal/day; progesterone 1 mg/animal/day; p< 0.05
pregnant guinea pigs = experiment: Abortive activity in pregnant guinea pigs; type: in vivo, guinea pig; conditions: 30 mg/animal/day s.c., pregnancy days 43 and 44
Method: In female animals, the second day of vaginal opening in the mating cycle was defined as day 1 of pregnancy (pregnancy length approx. 62 days). They were treated on days 43 and 44 by subcutaneous (s.c.) injection of the proprietary compounds EC312, EC313, EC323, and EC328 as well as UPA. All tested compounds were synthesized in Evestra Inc. The dose levels administered were 3, 10, and 30 mg/animal/day. The external genital organs were inspected for the presence of vaginal bleeding and fetal membranes (twice daily). The presence of expelled fetuses and placentae in the cages was also recorded at each inspection.
The animals were sacrificed on day 50 using CO2. Both uterine horns were dissected and their contents were inspected. Fresh corpora lutea (CL) were evidence of a recent ovulation.

[3] = tested on: immature female ovariectomized Wistar rats; experiment: Uterus growth test in immature ovariectomized rats; type: in vivo, rat; conditions: daily s.c. doses of up to corresponding to 172 mg/kg body weight
Excerpt: […] The vehicle served as the negative control. After treatment, the animals were sacrificed on day 4, and their vagina and uterine horns were dissected and weighed.

[4] = tested on: human endometriotic tissue grafts; experiment: Human endometriotic xenografts in immunodeficient mice; type: in vivo; conditions: s.c. once daily 14 days; EC313 0,01, 0.1, 1 mg/animal/day; Ulipristal acetate 1 mg/animal/day; vs vehicle control
Excerpt: Endometriosis is one of the expected clinical target indications for the development of EC313. But, there are no reliable pre-clinical models known at present. From all experimental approaches, the transplantation of human endometriotic tissue into immunodeficient mice resembles the clinical situation to some extent closely. Treatment of EC313 was compared with UPA as a reference compound. Two to four small pieces of human endometriotic tissue were placed into a s.c. pouch in the pelvic area of each of the ovariectomized mice. At the same time, an E2-releasing pellet (0.36 mg/pellet/60 days) was implanted s.c. in the neck of the mice. Furthermore, 2 weeks after implantation, the mice were treated with once-daily s.c. injections of vehicle, EC313 (0,01, 0.1, and 1 mg/animal/day), or Ulipristal acetate (1 mg/animal/day) for 14 days. The mice were sacrificed 24 hours after the last injection and all identified endometriotic grafts were resected, weighed, and subjected to visual examination.

[5] = target: T2, human progesterone receptor ligand binding domain (PR-LBD) (Homo sapiens, UniProt P06401); experiment: Competitive binding, PR ligand binding domain; conditions: compared to progesterone
T2 construct: purchased Thermo Fisher Scientific
Method: The study aimed to characterize the competitive binding profile of EC313 to relevant human nuclear receptors. For the assays, commercially available ‘ligand binding domain’ proteins were purchased (Thermo Fisher Scientific). In addition, the full-length receptor proteins were expressed in transfected HI insect cells using the `Bac-to-bac Baculovirus expression system´ (Thermo Fisher Scientific). Cellular lysates served as receptor preparation. Receptor protein preparations were incubated with tritiated reference ligands and EC313 or reference steroids at concentrations between 0.1 and 1000 nM for 2h at 4°C to reach equilibrium. Subsequently, unbound steroids were adsorbed to dextran-coated charcoal (Sigma Aldrich), separated by filtration, and the remaining radioactivity was quantified in a ß-counter (Perkin Elmer). Displacement curves were fitted using the GraphPad Prism 7 free version to obtain EC50 values. Relative binding affinity (RBA [%], (C50ref/C50test)*100) and the competition coefficient (C50test/C50ref) were used to describe the relative binding potency of EC313 compared to the reference ligands.

T1 sequence (P03372 whole entry): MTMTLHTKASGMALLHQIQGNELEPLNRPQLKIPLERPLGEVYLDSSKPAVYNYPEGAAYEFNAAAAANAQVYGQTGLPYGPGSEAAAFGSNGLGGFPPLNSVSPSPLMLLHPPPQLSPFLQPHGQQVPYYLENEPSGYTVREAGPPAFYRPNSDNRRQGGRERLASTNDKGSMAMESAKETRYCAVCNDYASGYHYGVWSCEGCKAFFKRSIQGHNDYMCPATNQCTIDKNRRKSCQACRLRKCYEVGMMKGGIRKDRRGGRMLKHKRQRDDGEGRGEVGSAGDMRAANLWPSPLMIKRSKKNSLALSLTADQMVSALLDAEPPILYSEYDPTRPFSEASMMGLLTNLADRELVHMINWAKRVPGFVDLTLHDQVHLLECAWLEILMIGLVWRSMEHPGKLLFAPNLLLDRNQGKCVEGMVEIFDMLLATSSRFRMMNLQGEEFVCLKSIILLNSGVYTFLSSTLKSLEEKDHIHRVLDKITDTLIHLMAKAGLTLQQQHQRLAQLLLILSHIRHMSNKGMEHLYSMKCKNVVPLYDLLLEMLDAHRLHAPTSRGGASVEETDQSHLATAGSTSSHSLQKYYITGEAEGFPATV
T2 sequence (P06401 679-913 limits assumed): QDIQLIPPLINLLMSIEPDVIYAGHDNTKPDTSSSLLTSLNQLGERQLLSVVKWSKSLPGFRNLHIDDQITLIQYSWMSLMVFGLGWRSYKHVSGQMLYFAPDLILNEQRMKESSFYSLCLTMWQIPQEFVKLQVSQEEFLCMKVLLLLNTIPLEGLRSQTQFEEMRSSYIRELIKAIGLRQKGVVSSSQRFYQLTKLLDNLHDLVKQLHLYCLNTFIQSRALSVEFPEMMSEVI

C[C@]12C[C@H](c3ccc(-c4ccoc4)cc3)C3=C4CCC(=O)C=C4CC[C@H]3[C@@H]1CC[C@]21OCCC1=C(F)F [EC313] was tested, and the “agonistic or antagonistic activity” value (human Erα) was “no agonistic or antagonistic activity”, the “receptors retained in the nuclear fraction after 24 hours” value [1] was “retained more receptors in the nuclear fraction” and the “estradiol-induced proliferation of T47D” value (T47D cells) was “counteracts the estradiol-induced proliferation of T47D”. For the same compound, the “Arrest in Go/G1” value (T47D cells; Proliferation, T47D cells, statistical significance not always reached) was “↑”, the “antagonistic action with co-administered progesterone” value [2] was “significant” and the “expulsion of uterine contents / fetal expulsions (animals)” value (pregnant guinea pigs) was “No fetal expulsions”. The “estrogenic / anti-estrogenic activity (uterine horn and vagina weights)” value [3] was “neither estrogenic nor anti-estrogenic activity”, the “weights of human endometriotic tissue grafts” value [4] was “significantly lower weights of the grafts” and the “affinity to the ligand binding domain” value [5] was “the same as that of progesterone”.
